We go through 3 compounds from patent US12084422B2, “Phenyl-n-quinoline derivatives for treating a RNA virus infection” (ABIVAX, priority 2018, dated 2024).

Each structure is given as a SMILES string.

One experiment relates to DENV-2 strain 16681. Put plainly: Screening for DENV-2 inhibition using Viral ToxGlo assay in A549 cells. It is filed as cell-based, Dengue 2 virus. The following applies: Dengue virus, DENV2, A549, 120 h, read-out: % DENV-2 Inhibition Mean (n = 3).
Experiment [1] relates to Chikungunya Virus (CHIKV) strain LR2006-OPY1 with GFP modification (CHIK 5'LR). The experiment is described as follows: Inhibition of Chikungunya virus (CHIKV) production in infected HEK293T cell line (GFP fluorescence). As to conditions: HEK-293T, infected HEK293T cells; for inhibition at 1 µM: compounds at 1 μM, MOI 0.1, 22 h, values above 100 lowered to 100, read-out: % CHIKV Inhibition Mean (n = 2); for IC50: second round of experiments. The class given is cell-based. The procedure: The ability of the compounds to inhibit viral replication was assessed with an experiment in which infected cells were treated by compounds of formula (I) at 1 μM. As a positive control for inhibition of Chikungunya, Ribavirin was used. Toxicity of the compounds was assessed in parallel.
Human embryonic kidney cells 293T (HEK293T, CRL-11268) were maintained in Dulbecco's modified Eagle's Medium (DMEM, 31966-021, Thermo Fisher Scientific) supplemented with 10% of fetal bovine serum (FBS), penicillin and streptomycin. After removal of the medium, cells were washed with a Ca^2+- and Mg^2+-free salt solution to remove all traces of serum. After aspiration of wash solution, cells were dissociated with 0.25% Trypsin-EDTA solution and incubated 30 s at least in 37° ° C. incubator. Concentration of cell suspension was determined by an automatic cell counter (EVE, NanoEntek) and, if needed, adjusted to 0.33×10^6 cells/mL with DMEM medium supplemented with 10% FBS.
100 μL of the cell suspension were dispatched in a ViewPlate-96 Black (6005182, PerkinElmer) and in a transparent 96-well cell culture plate (655180, Greiner bio-one). After an incubation for 24 h at 37° C. under 5% of CO2, compounds were added at the proper concentration.
An intermediate dilution was prepared with DMSO (D8418, Sigma) at 2 mM in a 96-well V-bottom microplate from the stock solution:
Mix 1 μL of the 50 mM stock library in 25 μL of DMSO.
Mix 2 μL of the 25 mM stock library in 25 μL of DMSO.
An intermediate dilution was prepared with DMSO (D8418, Sigma) at 25 mM in a 96-well V-bottom microplate from the stock solution:
Mix 2 μL of the 50 mM stock library in 2 μL of DMSO.
Serial dilutions were performed in 2 μL of DMSO 13 times to reach 0.0015 mM as follows in table III:
For both screen and determination of IC50 1 μL of each solution was added in a 1 mL Masterblock 96 wells (Greiner bio-one, 780261) containing 1 mL of DMEM medium. As a positive control, 5 μL of a 80 mM Ribavirin solution (R9644, Sigma) is added to 1 mL of DMEM. On the other hand, DMSO is used as a negative control.
[…]. Vector Borne Zoonotic Dis. 2006; 6(4)). This modified virus was used to infect cells at MOI 0.1. […].
Medium was removed after 22 h at 37° ° C. under 5% of CO2 and cells were washed as described above. 60 μL of RIPA buffer (50 mM Tris-HCl pH8, 100 mM NaCl, 1 mM MgCl2, 1% Triton X-100) was added to cells and incubated for at least 20 min before reading fluorescence signal. Pierce 660 nm Protein Assay Reagent (22660, Thermo scientific) was used to normalize fluorescence signal by protein quantity.
A first round of experiments has been performed wherein the results are expressed as inhibition percentage, which is calculated as follows, through the following steps:
1. Fluorescence intensity (FI) 509 nm/Absorbance 660 nm (A660)=A
This ratio allows considering the infection (GFP virus) to the protein amount.
2. A′=A—background noise of non-infected plate,
3. B=Fluorescence intensity (FI)/Absorbance 660 nm (A660) of infected but non treated plates,
4. C=A′/B which is then converted as the percentage of infection after treatment, compared to non-treated sample, and subsequently as the […]. For instance, a value of 100 in Table IV here below means that, after treatment, the signal attributed to GFP fluorescence is abolished, which is correlated to the absence of infection.
This value corresponds to the inhibition's percentage.
The following Table IV encompasses said C′ value for some compounds as calculated above with a mean of 2 experiments, and the corresponding standard deviation.
Some values were originally above 100. In these cases, the value has been lowered to 100. This means that some molecules also have an impact on the viability of the cells. In other words, the A value may be lower than the background noise.
Moreover, for each measure, the test was performed with Ribavirin as control. The value of the inhibition percentage was checked, giving 100%.

For the compound `Cc1cc(OC(C)C)ccc1Nc1ccc2cccc(Cl)c2n1` [Compound 10, 8-chloro-N-(4-isopropoxy-2-methylphenyl)quinolin-2-amine], in the experiment with DENV-2 strain 16681, the inhibition (in general, the relative decrease from the control value, in per cent) at 10 µM was determined as 79%. Further, in experiment [1], the inhibition at 1 µM stood at 100% and the IC50 – broadly, the concentration that inhibits the measured activity by half – lay in the range of 1 to 200 nM.
The corresponding values for `CCc1cc(OC(C)C)ccc1Nc1ccc2cccc(Cl)c2n1` [Compound 13, 8-chloro-N-(2-ethyl-4-isopropoxyphenyl)quinolin-2-amine] are 117%, 100% and 1 to 200 nM.
For the compound `Cc1cc(OC(C)C)c(C)cc1Nc1ccc2cccc(Cl)c2n1` [Compound 43, 8-chloro-N-(4-isopropoxy-2,5-dimethylphenyl)quinolin-2-amine], the inhibition at 10 µM in the experiment with DENV-2 strain 16681 was determined as 68%. For the same compound, the IC50 in experiment [1] was in the range of 1 to 200 nM.
